Source: US20130079309A1, “Method Of Treating Acute Lung Injury Using Sphingosine 1 Phosphate Analogs Or Sphingosine 1 Phosphate Receptor Agonists” (The Board of Trustees of the University of Illinois, priority 2010, published 2013)
Residues, ends and D or L forms follow the SMILES beside them. *: point of attachment. Cbz = O=C(OCc1ccccc1)*

Assays:
HPAEC [1] = assay: Transendothelial electrical resistance (TER) of HPAEC; type: cell-based, human; conditions: for maximal percentage TER change compared with S1P and FTY720 / maximal TER change: within 60 min; for maximal TER change: 10 μM
Protocol: Cells were grown at 37° C. in a 5% CO2 incubator, and passages 6 to 9 were used for experiments. Media were changed 1 day before experimentation.

ERK = assay: Western blotting of HPAEC lysates for phospho-ERK; type: cell-based, human; conditions: 5 min
Protocol: (§1) After treatment as outlined for individual experiments, confluent HPAEC were lysed for Western blotting with phospho-MLC, pan-MLC, phospho-ERK, or pan-ERK antibodies. […] Membranes were then immunoblotted with primary antibodies (1:500-1000, 4° C., overnight) followed by secondary antibodies conjugated to horseradish peroxidase (1:5000, room temperature, 30 min) and detected with enhanced chemiluminescence (Pierce ECL or SuperSignal West Dura; Pierce Biotechnology, Rockford, Ill.) on Biomax MR film (Carestream Health, Rochester, N.Y.).

β-arrestin = conditions: 1 μM (SEW2871 10 μM; (S)-FTY720-phosphonate 1, 10, 50 μM), 5 h
Protocol: After another 2 h-incubation with fluorescence substrate, the fluorescence intensity (blue and green channels) were detected and the blue/green emission ratio was used as the activation indicator.

HPAEC [2] = assay: Pharmacologic inhibitor effects on barrier enhancement (TER); conditions: 1 μM agonist, 60 min; for % Inhibition of Maximal TER Response (of Agonist-Only Control), PTX: 2-h preincubation 100 ng/ml PTX; for % Inhibition of Maximal TER Response (of Agonist-Only Control), MβCD: 2-h preincubation 2 mM MβCD; for % Inhibition of Maximal TER Response (of Agonist-Only Control), Gen: 30-min preincubation 200 μM genistein
Protocol: Endothelial cells were grown to confluence in polycarbonate wells containing evaporated gold microelectrodes (surface area, 10^−3 cm^2) in series with a large gold counter electrode (1 cm^2) connected to a phase-sensitive lock-in amplifier. Current was applied across the electrodes by a 4,000-Hz AC voltage source with amplitude of 1 V in series with a 1 MΩ resistance to approximate a constant current source (˜1 μA). The in-phase and out-of-phase voltages between the electrodes were monitored in real time with the lock-in amplifier and subsequently converted to scalar measurements of transendothelial impedance, of which resistance was the primary focus. TER was monitored for 30 minutes to establish a baseline resistance (R0) which, for bovine pulmonary endothelium, was typically between 8 to 12×10^3Ω (wells with R0<7×10^3Ω were rejected). As cells adhere and spread out on the microelectrode, TER increases (maximal at confluence), whereas cell retraction, rounding, or loss of adhesion is reflected by a decrease in TER. These measurements provide a highly sensitive biophysical assay that indicates the state of cell shape and focal adhesion. Values from each microelectrode were pooled at discrete time points and plotted versus time as the mean±SE of the mean. TER values from each microelectrode were pooled as discrete time points and plotted versus time as the mean±S.E.M.
In this experiment, confluent HPAEC were plated on gold microelectrodes and then stimulated with 1 μM S1P, FTY720, 1R, 1S, 2R, or 2S after either a 2-h preincubation with 100 ng/ml PTX, 30-min preincubation with 200 μM genistein (Gen), or 2-h preincubation with 2 mM MβCD or their respective vehicle controls. Data were pooled from multiple TER experiments (4-10 independent experiments per condition) and expressed as percentage inhibition of maximal barrier enhancement at 60 min relative to agonist-only control.

S1P receptor 1 (S1PR1) [3] = target: T1, S1P receptor 1 (S1PR1) (Homo sapiens, UniProt P21453); assay: Ubiquitination of S1PR1 in HPAEC (immunoprecipitation, ubiquitin Ab); conditions: for ubiquitination of S1PR1 at 2 h: 1 μM (SEW2871 10 μM)
Source text: S1PR1 was immunoprecipitated by S1PR1Ab, and ubiquitination of S1PR1 was detected by ubiquitin Ab.

S1P receptor 1 (S1PR1) [4] = target: T1, S1P receptor 1 (S1PR1); assay: S1PR1 protein expression in HPAEC by Western blot; type: cell-based; parameters: Cells were collected and S1PR1 expression level was detected by Western blot; endogenous in cells; host or cells: HPAEC (human pulmonary artery endothelial cells); conditions: for S1PR1 expression level compared to control: 1 μM (SEW2871 10 μM), 4 h
Source text: Cells were collected and S1PR1 expression level was detected by Western blot.

HPAEC [5] = assay: Transwell transendothelial permeability assay (FITC-dextran); type: cell-based, human; conditions: 1 μM (3R, 3S 25 μM), 1 h before FITC-dextran, 2-h incubation
Protocol: As a complementary approach to further characterize the barrier-protective effects of these FTY720 analogs in vitro, the permeability of FITC-labeled dextran across the pulmonary EC monolayer was assayed in response to treatment by the FTY720 analogs. […] Data were normalized to unstimulated control. n=3 independent experiments per condition; *, p<0.01 versus unstimulated condition (see FIG. 26).

MLC = assay: Western blotting of HPAEC lysates for phospho-MLC; type: cell-based, human; conditions: 5 min
Protocol: as §1

[6] = test system: radiation-induced lung injury (RILI) in C57BL/6 mice; assay: Murine model of RILI: BAL protein, BAL cell counts, BAL cytokines, EBD extravasation, body weight, lung histology; type: in vivo, mouse; conditions: 6 weeks
Protocol: Eight to 10-week-old C57BL/6J mice (Jackson Labs, Bar Harbor, Me.) were used for all studies in accordance with the University of Chicago Institutional Animal Care & Use Committee guidelines.
At the termination of each experiment, animals were euthanized by exsanguination under anesthesia in accordance with institutional guidelines. Both lungs were lavaged with 1.0 mL of Hank's buffered saline solution with the fluid allowed to equilibrate for 10 s before withdrawing. The pulmonary vasculature was perfused clear via the pulmonary artery with sterile phosphate-buffered saline (PBS). Both lungs were excised, weighed, and snap-frozen in liquid nitrogen for subsequent analysis. The BAL fluid collected was centrifuged at 500×g for 20 min at 4° C., and the supernatant was removed and recentrifuged at 12,000×g before snap-freezing. Cell pellets were resuspended in 0.5 mL of red blood cell lysis buffer (ACK Lysing Buffer; BioSource International, Camarillo, Calif.) for 20 min and then repelleted by centrifugation at 2500 rpm for 20 min at 4° C. The supernatant was decanted, and the cell pellet was resuspended in 0.2 mL of PBS for cellular analysis using a standard hemacytometer technique. A total of 300 BAL cells per slide were counted for cell differentials using a Diff-Quick-stained kit (Baxter Diagnostics, McGaw Park, Ill.). BAL protein concentrations were determined by a colorimetric BCA assay. Albumin concentrations in the BAL at 1:1000 and 1:100 dilutions, respectively, were quantitated by ELISA (Bethyl Labs, Montgomery, Tex.). To measure cytokines and chemokines, the BAL fluid was assayed with a Bioplex mouse cytokine kit (Bio-Rad, Hercules, Calif.) in accordance with the manufacturer's instructions.
All other chemicals were analytical or cell-culture grade and were obtained from various commercial sources. Evans Blue dye conjugated to albumin (EBA) was prepared by dissolving EBD to a concentration of 0.5% (5 mg/mL or 5.2 mM) in phosphate-buffered saline (PBS) (Ca^2+-Mg^2+ free; Invitrogen Corporation, Carlsbad, Calif.). To this solution, BSA was added to a final concentration of 4% (40 mg/mL or 0.6 mM), mixed well by stirring with a magnetic bar, allowed to stand for 30 min, and then sterile-filtered through a 0.22-μm syringe filter. The conjugate was stored in small aliquots at −80° C. To prevent cross-contamination, each aliquot was used only once in one animal and then discarded. 4, 6, 8, or 12 weeks after irradiation, the animals were injected with EBA via the jugular vein. At the end of exposure, the pulmonary circulation was flushed and lungs were harvested. Formamide extracts of lungs were prepared, with the initial modification that the homogenates were centrifuged at 12,000×g. Centrifugation at this relative centrifugal force (RCF) produced a compact pellet that allowed accurate measurement of the recovered volumes. Accurate estimation of such volumes is critical for calculating the final tissue dilution factor. Lungs, kidneys, and hearts from mice that were not injected with EBA were similarly extracted, to calculate the tissue-specific correction factors. […] Linear regression equations between absorbance at 740 nm (X) and 620 nm (Y) in tissue extracts of animals untreated with EBA were considered to be the tissue-specific correction factors. […] The EB concentration read in mg/mL was converted to μg/g wet weight of lungs using the dilution factor of the original homogenate as described above.
Eight to 10-week-old C57BL/6J mice (Jackson Labs, Bar Harbor, Me.) were used for all studies in accordance with the University of Chicago Institutional Animal Care & Use Committee guidelines. […] (FIG. 4A). Bronchoalveolar lavage (BAL) was performed as described above. BAL protein concentrations were determined by a colorimetric BCA assay. Albumin concentrations in the BAL at 1:1000 and 1:100 dilutions, respectively, were quantitated by ELISA (Bethyl Labs, Montgomery, Tex.).

[7] = test system: lung vascular leakage in RILI mice; assay: ViSen FMT lung imaging of intravascular probe extravasation in RILI mice; type: in vivo, mouse; conditions: 0.1 mg/kg, 25 Gy, 6 weeks
Protocol: Lung imaging studies were also performed with assessment of RILI-induced extravasation of an intravascular probe.
To assess microvascular changes associated with RILI in real-time, mice were imaged with ViSen FMT 1500 Quantitative Tomography In Vivo Imaging System. Intergisens^750 NIR (ViSen Medicals, Bedford, Mass.) was used as a probe, which targets the vasculature as a selective non-peptide small molecule integrin αvβ3 antagonist and a near-infrared fluorochrome. Mice were injected with probe ([…], IV) at 6 weeks post radiation and imaged 24 hrs later. Probe intensity was quantified using TrueQuant 3D software (VisSen Medicals).

[8] = 0.01 or 0.1 mg/kg i.p. 2×/wk from 1 wk before irradiation (20 Gy)

T1 sequence (P21453 whole entry): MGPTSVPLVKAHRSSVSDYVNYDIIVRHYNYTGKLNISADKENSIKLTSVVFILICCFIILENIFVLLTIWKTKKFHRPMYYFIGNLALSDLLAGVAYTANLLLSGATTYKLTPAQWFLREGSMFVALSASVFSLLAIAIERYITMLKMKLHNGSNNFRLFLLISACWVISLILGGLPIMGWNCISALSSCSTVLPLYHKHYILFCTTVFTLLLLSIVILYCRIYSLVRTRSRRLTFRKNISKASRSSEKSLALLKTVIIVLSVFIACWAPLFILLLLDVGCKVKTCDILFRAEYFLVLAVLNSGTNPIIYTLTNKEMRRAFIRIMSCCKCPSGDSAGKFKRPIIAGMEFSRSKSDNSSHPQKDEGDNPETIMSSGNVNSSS

ubiquitination of S1PR1 at 2 h (S1P receptor 1 (S1PR1) [3])	S1PR1 expression level compared to control (S1P receptor 1 (S1PR1) [4]) [%]	SMILES	maximal percentage TER change compared with S1P and FTY720 (HPAEC [1]; 1 μM)	maximal TER change (HPAEC [1])	ERK phosphorylation (ERK)	activation of β-arrestin (blue/green emission ratio) (β-arrestin)	% Inhibition of Maximal TER Response (of Agonist-Only Control), PTX (HPAEC [2])	% Inhibition of Maximal TER Response (of Agonist-Only Control), MβCD (HPAEC [2])	% Inhibition of Maximal TER Response (of Agonist-Only Control), Gen (HPAEC [2])	other results
significant ubiquitination	47.2	CCCCCCCCc1ccc(CC[C@](N)(CO)CCP(=O)(O)O)cc1 [1R, (R)-3-amino-3-(hydroxymethyl)-5-(4-octylphenyl)pentylphosphonic acid]	greater maximal percentage TER change	even greater maximal TER elevation	increased phosphorylation of ERK	strongly activated	79.2 (±5.9) %	67.0 (±19.7) %	54.3 (±14.7) %	ubiquitination of S1PR1 at 1 h (S1P receptor 1 (S1PR1) [3]; 1 μM, 1 h): only slight ubiquitination; S1PR1 expression, agonist without MG132 (S1P receptor 1 (S1PR1) [4]; 1 μM, 4 h (FIG. 18)): 66.3%; S1PR1 expression, agonist after MG132 pretreatment (S1P receptor 1 (S1PR1) [4]; MG132 10 μM 2 h, then 1 μM agonist 4 h): 94.2%
–	–	CCCCCCCCc1ccc(CC[C@@](N)(C=CP(=O)(O)O)CO)cc1 [2R, (R)-3-amino-3-(hydroxymethyl)-5-(4-octylphenyl)pent-1-enylphosphonic acid]	greater maximal percentage TER change	even greater maximal TER elevation	increased phosphorylation of ERK	–	88.1 (±7.8) %	87.4 (±5.4) %	41.1 (±12.2) %	–
–	–	CCCCCCCCc1ccc(CC[C@](N)(C=CP(=O)(O)O)CO)cc1 [2S, (S)-3-amino-3-(hydroxymethyl)-5-(4-octylphenyl)pent-1-enylphosphonic acid]	–	somewhat barrier-disruptive	failed to induce phosphorylation	–	76.3 (±12.0) %	95.2 (±1.0) %	91.6 (±2.4) %	–
–	–	CCCCCCCCc1ccc(CCC(O)(CN)CCO)cc1 (centres unmarked) [3R, 3-(aminomethyl)-5-(4-octylphenyl)pentane-1,3-diol]	–	–	did not increase ERK or MLC phosphorylation	–	–	–	–	TER response (tracing) (HPAEC [1]; 1 μM): barrier-disruptive; EC permeability to FITC-dextran vs control EC (HPAEC [5]): increase EC permeability; MLC phosphorylation (MLC): did not increase ERK or MLC phosphorylation
–	–	CC(C)C[C@@H](C=O)NC(=O)[C@H](CC(C)C)NC(=O)[C@H](CC(C)C)NC(=O)OCc1ccccc1 [MG132, reference compound] (Cbz-Leu-Leu-Leu-aldehyde)	–	–	–	–	–	–	–	S1PR1 expression, MG132 alone (S1P receptor 1 (S1PR1) [4]; 10 μM): did not affect the expression of S1PR1
significant ubiquitination	30.3	FC(F)(F)c1cccc(-c2noc(-c3cc(-c4ccccc4)c(C(F)(F)F)s3)n2)c1 [SEW2871, 5-[4-phenyl-5-(trifluoromethyl)-2-thienyl]-3-[3-(trifluoromethyl)phenyl]-1,2,4-oxadiazole]	–	–	–	strongly activated	–	–	–	lung histology: inflammatory cell infiltration and interstitial edema induced by radiation ([6]; 0.1 mg/kg i.p. 2×/wk, 25 Gy): to a lesser extent; BAL cell counts vs RILI-challenged controls [6, 8]: dose-dependent protective effect; BAL protein vs RILI-challenged controls [6, 8]: dose-dependent protective effect; radiation-induced probe extravasation (probe intensity), FMT imaging [7]: significant decreases
